This experiment relates to HeLa cells. Kind of experiment: Cell cycle analysis (DNA content histograms) in HeLa cells. It is filed as cell-based, human. The settings on record: >11 μM. Here is the method: FIGS. 7A-7B evaluates the Colibactin 742 (4) and its linear precursor 9 recapitulate the clb phenotype. […] HeLa cells were treated with the linear precursor 9 (1-100 μM), colibactin 742 (4) (1-100 μM) or MMC (150 nM) for 4 h. The cells were then washed and incubated for 20 h before immunofluorescence imaging. Cells were considered positive when >5 FANCD2 or γH2AX foci formed. Means and standard deviations of results from at least three independent experiments are shown. FIG. 7B depicts the DNA content histograms upon treatment with colibactin 742 (4, 11 μM) or 9 (11 μM) quantification of the sub-population of the histograms.
DNA content histograms and quantification of the sub-population of the histograms.
It has also been reported that clb^+ bacteria induce cell cycle arrest at the G2/M phase and eventual mitotic catastrophe.

Molecules are shown by their SMILES.

`C[C@H]1CCC(CC(=O)NC2(C(=O)CC(=O)NCC(=O)c3csc(CCc4csc(CNC(=O)CC(=O)C5(NC(=O)CC6=N[C@@H](C)CC6)CC5)n4)n3)CC2)=N1` [compound 9]: the “cell cycle arrest at G2/M” value is recorded as “accumulation of cells in G2”.

For the origin of these results see patent US20250026747A1, “COLIBACTIN DERIVATIVES AND METHODS OF TREATING, AMELIORATING, AND/OR PREVENTING CANCER” (priority 2021, published 2025).
